Assay results taken from PMC12529149, “Chemical and Antiplasmodial Investigations on Carapa-Derived Gedunin Derivatives and Semisynthetic 6- and 7‑Substituted Gedunin Analogues from the Brazilian Amazon” (ACS Omega, 2025).
Several values for one entry are separate records, joined by “and”; a condition that tells them apart may be missing. Identical values can stand only once. Like-named read-outs stand apart in the source and are kept apart here.

Legend:
P. falciparum K1 strain = test system: P. falciparum K1 strain; parameters: method as in earlier work; settings: ref previous reports incl. authors' earlier work (numbers not shown); cited from earlier work
[1] = test system: variety of P. falciparum strains; settings: chloroquine-resistant (Dd2, K1, W2) and chloroquine-sensitive (3D7, D6, D10, FCR3, FCR3TC) strains; ref literature (numbers not shown); read-out: IC50, in vitro growth; cited from earlier work
P. falciparum Dd2 strain = settings: ref recent study on C. guianensis (number not shown); cited from earlier work
[2] = test system: P. falciparum K1 strain vs MRC-5 human fibroblasts; assay: Selectivity index, IC50 (human fibroblasts) ÷ IC50 (P. falciparum); assay type: cell-based, Plasmodium falciparum
Text: Calculation of the selectivity index (SI) using the following formula afforded the relative toxicity of each sample to human fibroblasts and to P. falciparum blood stages: SI = IC50 (human fibroblasts) ÷ IC50 (P. falciparum).

P. falciparum W2 strain = test system: P. falciparum W2 strain; parameters: method as in literature (numbers not shown); settings: ref literature (numbers not shown), listed as gedunin; cited from earlier work
[3] = test system: K1 strain of Plasmodium falciparum; assay: In vitro susceptibility assay (microtest), P. falciparum K1 growth inhibition; assay type: cell-based; settings: Plasmodium falciparum, K1, 48 h, K1 strain, 48 h, CI95 in brackets; read-out: P. falciparum IC50 (CI95)
Method: In vitro culture of the K1 strain of P. falciparum (MRA-159, MR4, ATCC, Manassas, Virginia, USA) proceeded following an established method with modifications. Briefly, this method involved the growth of parasites in human type A+ red blood cells and RPMI 1640 medium supplemented with 10% type A+ human plasma at 37 °C under an atmosphere of 5% O2, 5% CO2, and 90% N2.
As initial condition for the susceptibility assay, cultures were synchronized by treatment with 5% D-sorbitol, which provided young trophozoites (ring stages). Performance of the microtest followed a previously described procedure with modifications. Compounds were dissolved in DMSO with the aid of an ultrasound bath to provided stock solutions. […] These diluted samples were evaluated in duplicate in a 96-well test plate. A suspension of parasitized red blood cells (pRBCs) at 2% hematocrit and 1% parasitemia was added to each well. Microplate incubation proceeded for 48 h at 37 °C under the same atmosphere used for parasite culture in two independent experiments conducted on different days. Control wells contained chloroquine (0.003–2.5 μg/mL) and quinine (0.003–2.5 μg/mL). Six (6) control (blank) wells were prepared with pRBCs suspension. Six cosolvent control wells were prepared with 1% DMSO and pRBCs suspension. An average of these 12 controls defined drug-free (untreated) growth. After the incubation period, thin blood smears of the contents of each well were prepared on microscope slides. Optical microscopy was used to analyze the blood smears and establish the parasitemia of each well. Interpolation of the nonlinear curve using GraphPad Prism permitted the calculation of estimates of the sample concentrations able to inhibit 50% of parasite growth (IC50) compared to drug-free controls.

[4] = test system: human mammary epithelial cells (HME); parameters: method as in literature (number not shown); settings: ref literature (number not shown); cited from earlier work
Hs578Bst cells = test system: Hs578Bst cells; parameters: method as in literature (number not shown); settings: immortalized, adult-derived normal cells; ref literature (number not shown); cited from earlier work
[5] = test system: P. falciparum FCR3 strain; parameters: method as in literature (numbers not shown); settings: ref literature (numbers not shown); cited from earlier work
Plasmodium berghei = settings: P. berghei-infected mice, cited from earlier work
MRC-5 human fibroblasts [6] = assay: Cytotoxicity/cell viability assay (Alamar blue); assay type: cell-based; settings: MRC5, MRC-5, tested at 50 μg/mL for 48 h, read-out: fibroblasts IC50
Method: Medical Research Council cell strain 5 (MRC-5) human fetal fibroblasts were cultivated in Dulbecco′s modified Eagle’s medium (DMEM) supplemented with 10% bovine fetal serum and 1% antibiotic at 37 °C under an atmosphere of 5% CO2. Cell viability assessment relied on the Alamar blue method. […] Doxorubicin at concentrations of 0.312, 0.625, 1.25, 2.50, 5.00, 10.0, and 20.0 μM was used as a positive control for cell death. The negative control wells received DMSO (sample diluent) at 0.1%. In preparation for the assay, this method involved plating 0.5 × 10^4 cells/well on 96 well test plates and incubating for 24 h under the same conditions used for cell culture. This initial 24 h period was necessary for cell adhesion. The assay consisted of triplicate addition of diluted samples and controls to wells followed by 48 h of incubation. For quantification of viable cells, 10 μL of 0.4% Alamar blue (Sigma-Aldrich)–which works out to an in-well concentration of 0.02%–were added to each well 3 h before the end of the treatment. Alamar blue was allowed to react for 3 h followed by quantification of the optical density (OD) of each well at an excitation wavelength of 465 nm and emission wavelength of 540 nm using an ELISA plate reader (DTX-800, Beckman Coulter). Comparison of individual sample viability OD to that of controls (blanks) afforded the cell viability. Interpolation of the nonlinear curve using GraphPad Prism software permitted the calculation of estimates of the sample IC50 values compared to drug-free controls.

[7] = test system: mouse mammary carcinoma (FM3A) cell cultures; parameters: method as in literature (number not shown); settings: ref literature (number not shown); cited from earlier work
P. falciparum D10 strain = test system: P. falciparum D10 strain; parameters: method as in literature (number not shown); settings: ref literature (number not shown); cited from earlier work
MRC-5 human fibroblasts [8] = test system: MRC-5 human fibroblasts; parameters: method as in authors' previous evaluation (number not shown); settings: ref authors' previous evaluation (number not shown); cited from earlier work

## CC(=O)O[C@@H]1C[C@H]2C(C)(C)C(=O)C=C[C@]2(C)[C@H]2CC[C@@]3(C)[C@H](c4ccoc4)OC(=O)[C@H]4O[C@]43[C@@]21C (single isomer, unassigned) [compound 4, gedunin]
P. falciparum K1 strain
  IC50: 1.5 µM
[1]
  IC50: 0.02 to 3.1 µM
P. falciparum Dd2 strain
  IC50: 2.8 ± 0.2 µM
[2]
  selectivity index (SI): >37
P. falciparum W2 strain
  IC50: 1.31 ± 0.42 µM
[3]
  IC50: 1.4 µg/mL and 2.8 µM
[4]
  toxicity to HME cells: no appreciable toxicity
Hs578Bst cells
  toxicity to Hs578Bst cells: no appreciable toxicity
[5]
  IC50: 2.5 µM
Plasmodium berghei; oral or subcutaneous 50–90 mg/kg/day, ref literature (numbers not shown)
  suppression of parasite growth vs untreated controls: failed to significantly suppress parasite growth
MRC-5 human fibroblasts [6]
  IC50: > 100 µM
[7]
  toxicity to FM3A cells: toxic
P. falciparum D10 strain
  IC50: 1.66 ± 0.37 µM

## CC(=O)O[C@H]1[C@@H](OC(C)=O)[C@]2(C)[C@H](CC[C@@]3(C)[C@H](c4ccoc4)OC(=O)[C@H]4O[C@@]423)[C@@]2(C)C=CC(=O)C(C)(C)[C@H]12 [compound 12, 6α-acetoxygedunin]
MRC-5 human fibroblasts [8]
  IC50: > 110 µM
P. falciparum K1 strain
  IC50: 7 µM
P. falciparum Dd2 strain
  IC50: 2.1 ± 0.2 µM
Plasmodium berghei; oral 50–100 mg/kg/day, ref authors' earlier work (number not shown)
  suppression of parasitemia: 40–66%
